We go through 15 compounds from PubChem BioAssay (NCI).

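In this assay, cells in 96-well plates receive the compound at five concentrations for 48 hours. Endpoints are linearly interpolated between the surrounding concentrations. GI50 is the concentration that inhibits growth by half. Definition used: TGI = concentration required for complete inhibition of growth.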

The test system of the first assay is SK-OV-3 ovarian. Description: NCI-60 cell line screen, 48 h.
For the compound `CN[C@@H](C)C(=O)N[C@H](C(=O)N1CCC[C@H]1C(=O)Nc1sc(-c2ncco2)nc1-c1ccccc1)C1CCCCC1`, the GI50 was 0.0336 µM and the TGI stood at 0.299 µM.
On to `CC1=C2[C@@H](CC1)[C@]1(C)O[C@@](c3ccccc3)(C[C@H]1OC(=O)CO)[C@H]2OC(=O)/C=C/c1ccccc1`, for which the GI50 was 19 µM and the TGI was 44.8 µM.
The like results for `NC(=O)c1csc(C2OC(CO)C(O)C2O)n1` (configuration not stated) were, in that order, 79.9 µM and above 5120 µM.
Take `CCCN(CCS(C)(=O)=O)Cc1ccc(-c2ccc3ncnc(Nc4ccc(OCc5cccc(F)c5)c(Cl)c4)c3c2)o1`: the GI50 is 0.0197 µM and the TGI stood at 0.192 µM.
The like results for `CC(C)C[C@H](NC(=O)CNC(=O)c1cc(Cl)ccc1Cl)B1OC(=O)CC(CC(=O)O)(C(=O)O)O1` (some centres not stated) were, in that order, 0.261 µM and 29.6 µM.
Compound `OCC12C3C4C5C3C1C5C42` (configuration not stated) displayed a TGI above 100 µM.
Take `CCc1ccc2c(c1)N(CCO)C1=C(C(=O)OC1)C2c1cccc(Br)c1` (configuration not stated): the GI50 is 0.42 µM and the TGI was found to be 10.1 µM.
The corresponding values for `COc1ccc(-c2nc(Nc3cc(C)[nH]n3)c3ccccc3n2)cc1` are 1.39 µM and above 100 µM.
The compound `O=C1OC(=O)C(=C\c2ccc3c(c2)OCO3)/C1=C/c1ccc2c(c1)OCO2` showed a TGI above 100 µM.
As for `CC(C)NCCCn1c(Sc2cc3c(cc2I)OCO3)nc2c(N)ncnc21`, the GI50 is 0.0451 µM and the TGI is above 100 µM.
The like results for `CN1C(=O)N(C)C2C1NN=c1s/c(=C\c3ccc(C(F)(F)F)cc3)c(=O)n12` (configuration not stated) were, in that order, 3.96 µM and 46.9 µM.
The corresponding values for `N#Cc1c(N2CCOCC2)nc(=S)[nH]c1-c1ccco1` are 2.72 µM and 14.7 µM.
The like results for `C[C@@H]1CN(Cc2ccc(F)cc2)[C@@H](C)CN1C(=O)c1cc2c(C(=O)C(=O)N(C)C)cn(C)c2cc1Cl` were, in that order, 22.7 µM and above 79.6 µM.
Consider `COc1ccccc1-c1cc(=O)c2cc(C)cnc2[nH]1`, for which the TGI was above 100 µM.
Regarding `O=[N+]([O-])c1ccc(C=Cc2ccccc2)cc1.[C-]#[O+].[C-]#[O+].[C-]#[O+].[Cr]`, the GI50 was 22.9 µM and the TGI is above 100 µM.

The next assay relates to IGROV1 ovarian. Description: NCI-60 cell line screen, 48 h.
In the case of `CN[C@@H](C)C(=O)N[C@H](C(=O)N1CCC[C@H]1C(=O)Nc1sc(-c2ncco2)nc1-c1ccccc1)C1CCCCC1`, the GI50 was 47.5 µM and the TGI is above 100 µM.
The corresponding values for `CC1=C2[C@@H](CC1)[C@]1(C)O[C@@](c3ccccc3)(C[C@H]1OC(=O)CO)[C@H]2OC(=O)/C=C/c1ccccc1` are 24.3 µM and 62.4 µM.
`NC(=O)c1csc(C2OC(CO)C(O)C2O)n1` (configuration not stated): the GI50 was above 72.8 µM and the TGI was 5650 µM.
The corresponding values for `CCCN(CCS(C)(=O)=O)Cc1ccc(-c2ccc3ncnc(Nc4ccc(OCc5cccc(F)c5)c(Cl)c4)c3c2)o1` are 16.5 µM and above 25 µM.
`CC(C)C[C@H](NC(=O)CNC(=O)c1cc(Cl)ccc1Cl)B1OC(=O)CC(CC(=O)O)(C(=O)O)O1` (some centres not stated): the GI50 was 0.231 µM and the TGI was above 41.8 µM.
`OCC12C3C4C5C3C1C5C42` (configuration not stated): the TGI was above 100 µM.
Turning to `CCc1ccc2c(c1)N(CCO)C1=C(C(=O)OC1)C2c1cccc(Br)c1` (configuration not stated), the GI50 was 2.56 µM and the TGI is 25.9 µM.
As for `COc1ccc(-c2nc(Nc3cc(C)[nH]n3)c3ccccc3n2)cc1`, the GI50 is 0.686 µM and the TGI came out at 7.12 µM.
Consider `O=C1OC(=O)C(=C\c2ccc3c(c2)OCO3)/C1=C/c1ccc2c(c1)OCO2`, for which the TGI is above 100 µM.
As to `CC(C)NCCCn1c(Sc2cc3c(cc2I)OCO3)nc2c(N)ncnc21`, the GI50 is 0.0885 µM and the TGI came to 3.52 µM.
Regarding `CN1C(=O)N(C)C2C1NN=c1s/c(=C\c3ccc(C(F)(F)F)cc3)c(=O)n12` (configuration not stated), the GI50 was 2.65 µM and the TGI was above 100 µM.
The like results for `N#Cc1c(N2CCOCC2)nc(=S)[nH]c1-c1ccco1` were, in that order, 1.86 µM and 13 µM.
The corresponding values for `C[C@@H]1CN(Cc2ccc(F)cc2)[C@@H](C)CN1C(=O)c1cc2c(C(=O)C(=O)N(C)C)cn(C)c2cc1Cl` are 19.5 µM and 49.7 µM.
For `COc1ccccc1-c1cc(=O)c2cc(C)cnc2[nH]1`, the TGI was above 100 µM.
Consider `O=[N+]([O-])c1ccc(C=Cc2ccccc2)cc1.[C-]#[O+].[C-]#[O+].[C-]#[O+].[Cr]`, for which the GI50 is 6.78 µM and the TGI was above 100 µM.

In a further assay the test system is OVCAR-3 ovarian. The experiment in a line: NCI-60 cell line screen, 48 h.
As to `CN[C@@H](C)C(=O)N[C@H](C(=O)N1CCC[C@H]1C(=O)Nc1sc(-c2ncco2)nc1-c1ccccc1)C1CCCCC1`, the GI50 was 38.7 µM and the TGI is above 100 µM.
`CC1=C2[C@@H](CC1)[C@]1(C)O[C@@](c3ccccc3)(C[C@H]1OC(=O)CO)[C@H]2OC(=O)/C=C/c1ccccc1`: the GI50 is 15 µM and the TGI was found to be 30.6 µM.
The like results for `NC(=O)c1csc(C2OC(CO)C(O)C2O)n1` (configuration not stated) were, in that order, 22.2 µM and 7030 µM.
The corresponding values for `CCCN(CCS(C)(=O)=O)Cc1ccc(-c2ccc3ncnc(Nc4ccc(OCc5cccc(F)c5)c(Cl)c4)c3c2)o1` are above 22.9 µM and above 25 µM.
As to `CC(C)C[C@H](NC(=O)CNC(=O)c1cc(Cl)ccc1Cl)B1OC(=O)CC(CC(=O)O)(C(=O)O)O1` (some centres not stated), the GI50 was 0.0269 µM and the TGI is 0.0791 µM.
`OCC12C3C4C5C3C1C5C42` (configuration not stated) came in with a TGI above 100 µM.
On to `CCc1ccc2c(c1)N(CCO)C1=C(C(=O)OC1)C2c1cccc(Br)c1` (configuration not stated), for which the GI50 is 0.296 µM and the TGI stood at 1.23 µM.
The corresponding values for `COc1ccc(-c2nc(Nc3cc(C)[nH]n3)c3ccccc3n2)cc1` are 3.72 µM and 38.8 µM.
Turning to `O=C1OC(=O)C(=C\c2ccc3c(c2)OCO3)/C1=C/c1ccc2c(c1)OCO2`, the TGI was above 100 µM.
As for `CC(C)NCCCn1c(Sc2cc3c(cc2I)OCO3)nc2c(N)ncnc21`, the GI50 was 0.585 µM and the TGI was above 100 µM.
The corresponding values for `CN1C(=O)N(C)C2C1NN=c1s/c(=C\c3ccc(C(F)(F)F)cc3)c(=O)n12` (configuration not stated) are 0.493 µM and 17.7 µM.
The corresponding values for `N#Cc1c(N2CCOCC2)nc(=S)[nH]c1-c1ccco1` are 7.93 µM and 49.8 µM.
The corresponding values for `C[C@@H]1CN(Cc2ccc(F)cc2)[C@@H](C)CN1C(=O)c1cc2c(C(=O)C(=O)N(C)C)cn(C)c2cc1Cl` are 18.7 µM and 39.2 µM.
For the compound `COc1ccccc1-c1cc(=O)c2cc(C)cnc2[nH]1`, the GI50 was 19.5 µM and the TGI is 60.2 µM.
The corresponding values for `O=[N+]([O-])c1ccc(C=Cc2ccccc2)cc1.[C-]#[O+].[C-]#[O+].[C-]#[O+].[Cr]` are 21.2 µM and above 100 µM.

The next assay deals with PC-3 prostate. The experiment in a line: NCI-60 cell line screen, 48 h.
Consider `CN[C@@H](C)C(=O)N[C@H](C(=O)N1CCC[C@H]1C(=O)Nc1sc(-c2ncco2)nc1-c1ccccc1)C1CCCCC1`, for which the GI50 is 42 µM and the TGI is above 100 µM.
The like results for `CC1=C2[C@@H](CC1)[C@]1(C)O[C@@](c3ccccc3)(C[C@H]1OC(=O)CO)[C@H]2OC(=O)/C=C/c1ccccc1` were, in that order, 8.56 µM and 31.5 µM.
The like results for `NC(=O)c1csc(C2OC(CO)C(O)C2O)n1` (configuration not stated) were, in that order, 29.5 µM and 2560 µM.
The corresponding values for `CCCN(CCS(C)(=O)=O)Cc1ccc(-c2ccc3ncnc(Nc4ccc(OCc5cccc(F)c5)c(Cl)c4)c3c2)o1` are above 25 µM and above 25 µM.
As for `CC(C)C[C@H](NC(=O)CNC(=O)c1cc(Cl)ccc1Cl)B1OC(=O)CC(CC(=O)O)(C(=O)O)O1` (some centres not stated), the GI50 is 0.105 µM and the TGI came out at 1.82 µM.
As for `OCC12C3C4C5C3C1C5C42` (configuration not stated), the TGI is above 100 µM.
Regarding `CCc1ccc2c(c1)N(CCO)C1=C(C(=O)OC1)C2c1cccc(Br)c1` (configuration not stated), the GI50 was 0.491 µM and the TGI came to 16.2 µM.
The like results for `COc1ccc(-c2nc(Nc3cc(C)[nH]n3)c3ccccc3n2)cc1` were, in that order, 1.48 µM and 66.1 µM.
In the case of `O=C1OC(=O)C(=C\c2ccc3c(c2)OCO3)/C1=C/c1ccc2c(c1)OCO2`, the TGI is above 100 µM.
For `CC(C)NCCCn1c(Sc2cc3c(cc2I)OCO3)nc2c(N)ncnc21`, the GI50 is 0.133 µM and the TGI is above 100 µM.
The corresponding values for `CN1C(=O)N(C)C2C1NN=c1s/c(=C\c3ccc(C(F)(F)F)cc3)c(=O)n12` (configuration not stated) are 0.677 µM and above 100 µM.
As to `N#Cc1c(N2CCOCC2)nc(=S)[nH]c1-c1ccco1`, the GI50 was 0.19 µM and the TGI is 3.17 µM.
The like results for `C[C@@H]1CN(Cc2ccc(F)cc2)[C@@H](C)CN1C(=O)c1cc2c(C(=O)C(=O)N(C)C)cn(C)c2cc1Cl` were, in that order, 18.9 µM and above 77.7 µM.
The corresponding values for `COc1ccccc1-c1cc(=O)c2cc(C)cnc2[nH]1` are 27 µM and above 100 µM.
On to `O=[N+]([O-])c1ccc(C=Cc2ccccc2)cc1.[C-]#[O+].[C-]#[O+].[C-]#[O+].[Cr]`, for which the GI50 is 43.3 µM and the TGI was above 100 µM.

For a further assay, the system named is HOP-62 NSCLC. The experiment in a line: NCI-60 cell line screen, 48 h.
As to `CN[C@@H](C)C(=O)N[C@H](C(=O)N1CCC[C@H]1C(=O)Nc1sc(-c2ncco2)nc1-c1ccccc1)C1CCCCC1`, the GI50 was above 92.2 µM and the TGI is above 100 µM.
The like results for `CC1=C2[C@@H](CC1)[C@]1(C)O[C@@](c3ccccc3)(C[C@H]1OC(=O)CO)[C@H]2OC(=O)/C=C/c1ccccc1` were, in that order, 17.1 µM and 37.3 µM.
The corresponding values for `NC(=O)c1csc(C2OC(CO)C(O)C2O)n1` (configuration not stated) are 44.7 µM and 3110 µM.
The corresponding values for `CCCN(CCS(C)(=O)=O)Cc1ccc(-c2ccc3ncnc(Nc4ccc(OCc5cccc(F)c5)c(Cl)c4)c3c2)o1` are above 25 µM and above 25 µM.
Regarding `CC(C)C[C@H](NC(=O)CNC(=O)c1cc(Cl)ccc1Cl)B1OC(=O)CC(CC(=O)O)(C(=O)O)O1` (some centres not stated), the GI50 was 0.124 µM and the TGI worked out at 1.05 µM.
For the compound `OCC12C3C4C5C3C1C5C42` (configuration not stated), the TGI is above 100 µM.
Turning to `CCc1ccc2c(c1)N(CCO)C1=C(C(=O)OC1)C2c1cccc(Br)c1` (configuration not stated), the GI50 was 0.462 µM and the TGI was 14.5 µM.
Consider `COc1ccc(-c2nc(Nc3cc(C)[nH]n3)c3ccccc3n2)cc1`, for which the GI50 is 1.17 µM and the TGI is above 26.2 µM.
`O=C1OC(=O)C(=C\c2ccc3c(c2)OCO3)/C1=C/c1ccc2c(c1)OCO2` gave a TGI above 100 µM.
For the compound `CC(C)NCCCn1c(Sc2cc3c(cc2I)OCO3)nc2c(N)ncnc21`, the GI50 is 0.263 µM and the TGI was above 100 µM.
With `CN1C(=O)N(C)C2C1NN=c1s/c(=C\c3ccc(C(F)(F)F)cc3)c(=O)n12` (configuration not stated), the GI50 is 1.31 µM and the TGI turned out to be 20.1 µM.
The like results for `N#Cc1c(N2CCOCC2)nc(=S)[nH]c1-c1ccco1` were, in that order, 2.95 µM and 9.16 µM.
The corresponding values for `C[C@@H]1CN(Cc2ccc(F)cc2)[C@@H](C)CN1C(=O)c1cc2c(C(=O)C(=O)N(C)C)cn(C)c2cc1Cl` are 18.7 µM and 48.9 µM.
Take `COc1ccccc1-c1cc(=O)c2cc(C)cnc2[nH]1`: the TGI is above 100 µM.
On to `O=[N+]([O-])c1ccc(C=Cc2ccccc2)cc1.[C-]#[O+].[C-]#[O+].[C-]#[O+].[Cr]`, for which the GI50 is above 100 µM and the TGI is above 100 µM.
